# Data taken from a melting point compilation (Tetko et al.; mined from patent text by program, amines drawn as free bases though some values may be those of a salt).
row,SMILES,melting point [°C]
1,Nc1nc(-n2cc(C(=O)O)c(=O)c3cc(F)c(F)c(Cl)c32)c(F)cc1Cl,280
2,CC(C)(C)OC(=O)N1CCN(C(=O)SCc2ccc(OCc3ccc(F)cc3)cc2)CC1,123 to 124
3,CC(=O)c1cc2c(s1)S(=O)CCN(CCCCN1CCN(c3ncccn3)CC1)C2=O (centres undefined),103 to 106
4,COc1ccc(C(=O)Nc2ccccc2)cc1NS(=O)(=O)c1ccc(F)cc1F,198 to 200
5,CCC1(CC)OC(=S)Nc2ccc(-c3cccc([N+](=O)[O-])c3)cc21,180 to 181
6,COc1ccc(S(=O)(=O)C2(C(=O)NO)CCN(Cc3ccc(-c4cccs4)cc3)CC2)cc1,166
7,CN1CCC2c3[nH]c4ccccc4c3CCN2C1 (centres undefined),168
8,CCS(=O)c1ccc(-c2coc3ccc(-c4nnc(C)o4)cc23)cc1F (centres undefined),187 to 188
9,CCOCC1Cc2cc(S(=O)(=O)N(C)C)c(Cl)c(Cl)c2O1 (centres undefined),91 to 92
10,CCCCCCCCCCC[C@H](O)C[C@@H]1OC(=O)[C@H]1CCCCCC,61 to 62
11,O=[N+]([O-])c1cc(C(F)(F)F)c(Br)cc1-n1ccnc1,149 to 157
12,Cc1ccc(NC(=O)c2cccc(C(F)(F)F)c2)cc1NC(=O)N(C)c1cc(Nc2ccc(N3CCN(C)CC3)cc2)ncn1,190 to 191
13,O=c1[nH]c(=O)n(Cc2ccccc2)cc1C=NO,172 to 174
14,CC(C)(C)OC(=O)N[C@H]1CC[C@H](CCN2CCCN(c3cccc(Cl)c3Cl)CC2)CC1,95 to 98
15,COc1cn(-c2cccc(-c3cccnc3)c2F)nc(-c2ccnn2-c2ccccc2)c1=O,147 to 153
16,COc1cc(C(C)=O)ccc1OCCCN1CCC(C(O)(c2ccc(F)cc2)c2ccc(F)cc2)C1 (centres undefined),44 to 46
17,Cc1ccnc2c1C(=O)CC(c1nccs1)C2 (centres undefined),88 to 89
18,CCCN(CCC)C(=O)n1cnc(S(=O)C(C)C)n1 (centres undefined),15 to 20
19,Cc1c(Cc2c[nH]cn2)ccc(O)c1C(N)=O,263
20,Cc1ccc(S(=O)(=O)NCCCn2c(CCO)nc3c(N)nc4ccccc4c32)cc1,231 to 232
21,Nc1cnc(-c2ccc(Cl)cc2)n(CC(=O)NC(Cc2ccccc2)C(=O)C(F)(F)F)c1=O (centres undefined),197 to 200
22,CC(C)(C)c1cc(NC(=O)Nc2cccc(Cl)c2Cl)c(-c2ccccc2)s1,171 to 173
23,CCCCS(=O)(=O)Nc1ccc(OCc2ccc3ccccc3n2)cc1,113

row,SMILES,melting point [°C]
1,COc1ccc(C)c2nc(Cl)c(C(C)C)cc12,74 to 76
2,CN(c1ccnc(Cl)n1)n1cccc1,102 to 103
3,O=[N+]([O-])c1cc(C2=NOC(c3cc(C(F)(F)F)cc(C(F)(F)F)c3)(C(F)(F)F)C2)ccc1-n1cnnn1 (centres undefined),173 to 175
4,O=C(O)C(Oc1ccc(Cl)c(C(F)(F)F)c1)c1ccc(Cl)cc1 (centres undefined),132
5,CC(=O)c1ccc(CC(C)OS(=O)(=O)c2ccc(C)cc2)s1 (racemic),101 to 103
6,Cc1cccc(Cl)c1NS(=O)(=O)c1nc(N)n(C(=O)Oc2ccccc2)n1,200
7,Cc1nn(-c2cncc(F)c2)cc1[N+](=O)[O-],90 to 92
8,O=S(=O)(c1ccccc1)N1CCCCC1CSc1ccc(Cl)cc1 (centres undefined),78.5 to 80
9,COC(=O)c1c(Cl)cc(Cl)cc1NC(=O)CSc1ccccc1OC,93 to 94
10,C1=CC2=NC=NC23CCNCC3N1 (centres undefined),94 to 95
11,C/C(=C\c1cccc2c1NCCNC2=O)CCCC(=O)O,257 to 259
12,CC(C)(CCl)C(=O)N(Cc1ccccc1Cl)OC(=O)c1ccccc1,117 to 120
13,CCCc1nc(C=O)c[nH]1,104 to 106
14,CCc1nccc(NC(=O)Cc2ccc(Oc3ccc([N+](=O)[O-])cn3)cc2)c1Cl,128 to 131
15,Nc1nc(-c2cc(Cl)ccc2Cl)nc(N2CCCC2)n1,191 to 193
16,COc1ccc(OC)c(CC(NC(=O)CC(C2CCCCC2)C2CCCCC2)C(=O)OC(C)(C)C)c1 (centres undefined),108 to 111
17,O=C(C=Cc1cncc(F)c1)NCCCCN1CCN(C(c2ccccc2)c2ccccc2)CC1,128 to 129
18,CCCCn1cnnc1S,67 to 69
19,COc1ccc(C(=O)c2cccc(N)c2)cc1OC,157 to 175
20,C=C(C)C(=O)OCCCCCCOc1ccc(/C=C/C(=O)OC)cc1,45 to 50
21,CC1(C)CCC(C)(C)c2cc(-c3cc(-c4ccc(C(=O)OCc5ccccc5)cc4)ccc3O)ccc21,90 to 91
22,Nc1sc(/C=C/CC2CCCCC2)c(CN(C2CCCCC2)C2CCCCC2)c1C(=O)c1ccc(Cl)cc1,147 to 150
23,CC1c2cccc3c2N(CC3)c2ccccc2N1C(=O)CCCCl (centres undefined),88 to 90

row,SMILES,melting point [°C]
1,CCOC(=O)NC1(c2ccc(C(C)C)cc2OC)C(=O)c2ccccc2C1=O,149 to 150
2,CCC(=O)c1ccc(OC)c(OC(=O)CCl)c1,77 to 79.5
3,O=S1(=O)c2ccccc2Oc2cc(F)ccc21,174 to 176
4,CSC1(N)N=C(N(C)C)N=C(N)N1 (centres undefined),207 to 212
5,CS(=O)(=O)c1ccc(-n2nc(C(F)(F)F)cc2-c2ccc(-c3cscn3)c(F)c2)cc1,176 to 178
6,CC(C)C(=O)Oc1cccc2c(-c3ccccc3)c3cccc(OC(=O)C(C)C)c3c(OC(=O)C(C)C)c12,224
7,O=C1c2cc(Br)ccc2COc2ccccc21,104 to 106
8,CCN(CCCc1c[nH]c2c(F)cc(F)cc12)C1COc2c(C(N)=O)ccc(F)c2C1 (centres undefined),125
9,CSc1cc(C(C)C)c(NC(=O)C2c3ccccc3COc3ccc(C)cc32)c(C(C)C)c1 (centres undefined),126
10,CCC(=O)NN=C(Nc1ccc([N+](=O)[O-])cc1)c1ccc(OC)cc1,200
11,O=C(CCBr)N1CC(c2ccccc2)c2ccccc21 (centres undefined),98 to 99
12,CON=C1C(C)(C)c2cc3c(cc2C1(C)C)N(SCc1nccc(OC)c1C)CN3,100
13,Cc1ccc(CON2C(C(F)(F)F)C(C(=O)Nc3ccccc3)=CN2C)c(C)c1 (centres undefined),123 to 125
14,CCCCc1noc(-c2ccc(C=CC(=O)NCC3CCCC3(C)C)cc2)n1 (centres undefined),144 to 145
15,CN1CCN(c2cc(Cl)cc3c2c(=O)n(Cc2ccc(C#N)cc2)c(=O)n3Cc2ccccc2)CC1,99 to 105
16,COc1cc([N+](=O)[O-])ccc1S(=O)(=O)N1C(=O)C(N)(c2ccccc2Cl)c2cc(Cl)ccc21 (centres undefined),229
17,COC(=O)c1c(-c2ccc(Cl)cc2)ccnc1Sc1nc(OC)cc(OC)n1,138 to 142
18,CC(C)(C)OC(=O)N[C@@H](C(=O)N1CCC[C@H]1C(=O)NC1CCc2n[nH]cc2C1)C(c1ccccc1)c1ccccc1 (some centres undefined),119 to 122
19,CC1(C)C2CCC3(C2)C1c1ncncc1CC3(C)C (centres undefined),44 to 45
20,COc1cc2ncn(CCO)c(=O)c2cc1OC,130
21,Cc1cc(SC2=C(O)CC(CCc3ccsc3)(C(C)C)OC2=O)c(C(C)(C)C)cc1CO (centres undefined),63 to 70
22,CC(=O)N1CCN(c2c(F)cc3c(=O)c(C(=O)O)cn(C4CC4)c3c2C)CC1C (centres undefined),219 to 221
23,CCS(=O)c1nsc(NC(=O)N(C)C)c1C#N (centres undefined),162 to 163
